The values below are quoted from earlier work in patent EP4360619A1, “DOSAGE FORM FOR INTRA-ARTICULAR INJECTION […] AN […] IN THE TREATMENT OF CRYSTAL-AND NON-CRYSTAL […] IN[…]” (PK MED, priority 2022, dated 2024).

The conditions of the data set: literature (E.Niel et al).

On to `COc1cc2c(c(OC)c1OC)-c1ccc(OC)c(=O)cc1[C@@H](NC(C)=O)CC2` [colchicine, N-[(7S)-1,2,3,10-tetramethoxy-9-oxo-6,7-dihydro-5H-benzo[a]heptalen-7-yl]acetamide], for which the lethal dose was 0.8 mg/kg and the toxicity limit is recorded as 0.1 mg/kg.
